Values of other authors, collected in patent publication US11707478B2, “Method for increasing uridine concentration in blood plasma” (N.V. Nutricia, priority 2016, dated 2023).

How the values were obtained:
[1] = oral administration of uridine, Klubes 1986
CNT 1 = biological target: T1, CNT 1 (Homo sapiens, UniProt O00337); settings: CNT 1 in the gut and in many other cells; read-out: apparent Km value of main transporter
T1 sequence (O00337 1-649): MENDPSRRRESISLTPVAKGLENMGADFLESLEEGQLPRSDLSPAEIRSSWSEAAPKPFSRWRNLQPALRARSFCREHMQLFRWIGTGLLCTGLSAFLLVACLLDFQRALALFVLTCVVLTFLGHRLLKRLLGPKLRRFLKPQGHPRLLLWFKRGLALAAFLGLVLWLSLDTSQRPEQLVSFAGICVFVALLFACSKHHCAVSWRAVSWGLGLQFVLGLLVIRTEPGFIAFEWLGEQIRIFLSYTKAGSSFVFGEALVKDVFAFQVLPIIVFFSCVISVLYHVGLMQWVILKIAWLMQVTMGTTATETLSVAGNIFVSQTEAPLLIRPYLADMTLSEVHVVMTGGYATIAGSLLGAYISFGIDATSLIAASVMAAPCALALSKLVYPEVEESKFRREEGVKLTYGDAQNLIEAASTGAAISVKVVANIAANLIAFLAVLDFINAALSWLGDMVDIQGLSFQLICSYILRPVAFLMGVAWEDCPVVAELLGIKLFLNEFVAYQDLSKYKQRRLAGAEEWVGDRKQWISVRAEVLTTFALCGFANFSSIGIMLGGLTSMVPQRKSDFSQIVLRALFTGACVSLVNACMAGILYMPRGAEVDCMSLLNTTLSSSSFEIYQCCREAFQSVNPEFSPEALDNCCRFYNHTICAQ

- bioavailability [1]: about 7%
- Km (CNT 1): 6 to 16 µM
Structure (SMILES): O=c1ccn([C@@H]2O[C@H](CO)[C@@H](O)[C@H]2O)c(=O)[nH]1 [Uridine, 1-[(2R,3R,4S,5R)-3,4-dihydroxy-5-(hydroxymethyl)oxolan-2-yl]pyrimidine-2,4-dione]
